From ChEMBL document CHEMBL1155670, “Identification of deoxymiroestrol as the actual rejuvenating principle of "Kwao Keur", Pueraria mirifica. The known miroestrol may be an artifact” (J Nat Prod, 2000)
Calls of active or inactive are those of the source. No cut-off for these calls is given here.

Legend:
MCF7 [1] = assay: Growth promoting activity in human MCF7 cells after 7 days by colorimetric methylene blue assay in presence of Toremifene; assay type: functional, cell-based
MCF7 [2] = assay: Growth promoting activity in human MCF7 cells at >10 nM after 7 days by colorimetric methylene blue assay in presence of Toremifene; assay type: functional, cell-based

CC1(C)[C@@H]2C[C@]3(O)CC(=O)[C@@H](C4=COc5cc(O)ccc5[C@H]41)[C@@H]2[C@H]3O
Activity (MCF7 [1]): Active | Activity (MCF7 [2]): Active

CC1(C)[C@@H]2C[C@]3(O)CC(=O)[C@@](O)(C4=COc5cc(O)ccc5[C@H]41)[C@@H]2[C@H]3O
Activity (MCF7 [1]): Active | Activity (MCF7 [2]): Active
